Reference: patent US20240334941A1, “HIGH-EFFICACY NATURAL PRESERVATIVES” (BioVeritas, LLC, priority 2023, published 2024)

Key:
mold [1] = experiment: Comparative shelf-life study using pup loaves (white bread), days until visible mold
Experimental: Example 2. A comparative shelf-life study was performed using pup loaves by an ISO/IEC 17025:2017 certified laboratory, Great Plains Analytical Laboratory, Kansas City, MO, USA. A standard white bread dough formulation was prepared (pup loaves) for each test group. Approximately 500 grams of dry material was used to prepare 3 pup loaves per test group. Various preservatives, which were to act as mold inhibitors, were added to the doughs. The amount of preservatives added to each dough is reported as a weight percentage based on the mass of flour in the dough (“on flour”). Each mold inhibitor was thoroughly mixed into the formulation for each dough. The percentage inclusion and type of mold inhibitor on flour is outlined in Table 2. Three of the mold inhibitors were made with acetic and propionic acid produced from fermentation using a mixed consortium of naturally occurring microorganisms or microbiome using the methods previously described herein. […] The second and third comparative mold inhibitors were high-efficacy clean-label acetate/propionate mold inhibitors, with one having an acetate/propionate weight ratio of 1:1 (50 wt. % acetate/50 wt. % propionate) (BV1) and the other one having an acetate/propionate weight ratio of 1:6 (14 wt. % acetate/86 wt. % propionate) (BV2). […] The internal temperature of each loaf was recorded upon exiting the oven and prior to packaging (Table 3). In addition, water activity and pH were measured in one of the replicates for each group prior to baking using a water activity meter and a pH meter (Table 4). The product odor (similar to baseline or off odor development), color, and general appearance were evaluated daily. […]
Three sample loaves were produced using each of the inhibitor treatments, and the number of days until mold was observed was recorded for each loaf. […] No off-odors were detected over time in any of the treatments.

[2] = Water activity and pH of bread dough prior to baking; type: physicochemical
Experimental: Example 2. A comparative shelf-life study was performed using pup loaves by an ISO/IEC 17025:2017 certified laboratory, Great Plains Analytical Laboratory, Kansas City, MO, USA. A standard white bread dough formulation was prepared (pup loaves) for each test group. Approximately 500 grams of dry material was used to prepare 3 pup loaves per test group. Various preservatives, which were to act as mold inhibitors, were added to the doughs. The amount of preservatives added to each dough is reported as a weight percentage based on the mass of flour in the dough (“on flour”). Each mold inhibitor was thoroughly mixed into the formulation for each dough. The percentage inclusion and type of mold inhibitor on flour is outlined in Table 2. Three of the mold inhibitors were made with acetic and propionic acid produced from fermentation using a mixed consortium of naturally occurring microorganisms or microbiome using the methods previously described herein. […] The second and third comparative mold inhibitors were high-efficacy clean-label acetate/propionate mold inhibitors, with one having an acetate/propionate weight ratio of 1:1 (50 wt. % acetate/50 wt. % propionate) (BV1) and the other one having an acetate/propionate weight ratio of 1:6 (14 wt. % acetate/86 wt. % propionate) (BV2). […] After mixing, the dough was divided into disposable bread pans and allowed to ferment for 3 hours at 86±1° F. and 60% relative humidity, proofed for 55 minutes at 109±1° F. and 90% humidity, and baked for 15 minutes at 425±1° F. This procedure was repeated for each test group for a total of 30 loaves of bread. The internal temperature of each loaf was recorded upon exiting the oven and prior to packaging (Table 3). In addition, water activity and pH were measured in one of the replicates for each group prior to baking using a water activity meter and a pH meter (Table 4). The product odor (similar to baseline or off odor development), color, and general appearance were evaluated daily. Each sample was opened and closed daily until visible mold appeared.

[3] = Water activity and pH of tortilla dough prior to baking; type: physicochemical
Experimental: After mixing the tortilla formulation ingredients with the corresponding mold inhibitor, samples of rounded dough were placed onto parchment paper and allowed to ferment for 20 minutes at 82±2° F. and 85% relative humidity. The dough was then pressed into a tortilla form, cooked, cooled, and packaged. This procedure was repeated for each test group. One replicate of dough for each group was tested prior to baking. Water activity was measured using a water activity meter. Measurements for pH were made using a pH meter. The product odor (similar to baseline or off odor development), color, and general appearance were evaluated daily. Each sample was opened and closed daily, until visible mold appeared.

mold [4] = experiment: Shelf-life study using pup loaves (Example 6), day of visible mold; conditions: ambient temperature
Experimental: Example 6. In another example, a comparative shelf-life and sensory study using pup loaves was performed by an ISO/IEC 17025:2017 certified laboratory, Great Plains Analytical Laboratory, Kansas City, MO. A total of seven test groups of white bread in a pup loaf formulation were prepared. […] Test groups were stored at ambient temperature for between 7 and 15 days to determine the overall efficacy of the inhibitors and compare the performance of the inhibitors in the bread formulation. Sensory analysis was performed examining the flavor and crumb texture for all samples. The studies were conducted concurrently.
A standard white bread dough formulation was prepared for each test group. Three pup loaves were prepared for each test group for the visual examination portion of the study. […] The bread was baked for 15 minutes at 425±1° F. Internal temperatures were recorded upon exiting the oven and prior to packaging. […]
Chemical testing included the evaluation of pH on the dough out of the mixer (Table 15). […] A bake score, height, and volume were recorded for each test group. […] The pup loaves were evaluated for visible mold every day for the shelf-life portion of the study. A photograph of the visible mold was taken the day it was detected. The sensory analysis consisted of a quantitative descriptive analysis and a ranking performed by a trained panel. […]

[5] = Dough pH out of the mixer (Example 6); type: physicochemical
Experimental: Chemical testing included the evaluation of pH on the dough out of the mixer (Table 15). Measurement for pH was made using a pH meter. A bake score, height, and volume were recorded for each test group. The bake score examined the crust color, loaf symmetry, uniformity of the break and shred, crumb texture, crumb grain, crumb color, taste, and aroma. The pup loaves were evaluated for visible mold every day for the shelf-life portion of the study. A photograph of the visible mold was taken the day it was detected. The sensory analysis consisted of a quantitative descriptive analysis and a ranking performed by a trained panel. […] The descriptive analysis covered the crumb texture and flavor of the test groups. The sensory analysis was performed on Days 3, 6, 9, 12, and 15. No sensory analysis was performed on bread that had visible mold.
The temperature of the loaves out of the oven and prior to packaging were recorded in Table 14. Dough was removed from the mixing bowl and then analyzed for pH.

mold [6] = experiment: Comparative shelf-life study using flour tortillas, days until visible mold
Experimental: Example 3. A comparative shelf-life study using flour tortillas was performed by an ISO/IEC 17025:2017 certified laboratory, Great Plains Analytical Laboratory, Kansas City, MO. The purpose of this study was to compare the efficacy of preservatives, which were to act as mold inhibitors, in a tortilla formulation. A total of 10 test groups of tortillas were prepared: 9 test groups contained various mold inhibitors and one test group served as control, without a mold inhibitor (no additive). Test groups were stored at ambient temperature for 30 days to determine the overall efficacy of the inhibitors and compare the performance of the inhibitors in the tortilla formulation. […]
After mixing the tortilla formulation ingredients with the corresponding mold inhibitor, samples of rounded dough were placed onto parchment paper and allowed to ferment for 20 minutes at 82±2° F. and 85% relative humidity. […] Water activity was measured using a water activity meter. […] The product odor (similar to baseline or off odor development), color, and general appearance were evaluated daily. […]
The results for the tortilla shelf-life study comparing the preservative/mold inhibitors treatments are graphically shown in FIG. 2. Three tortilla samples were produced using each of the inhibitor treatments, and the number of days until mold was observed was recorded for each sample. […]

[7] = 0.3 wt. % on flour (order of Table 2)
[8] = 1 wt. % on flour (order of Table 2)

Compound | mold inhibitor performance (mold [1]; 0.3 wt. % on flour) | Water Activity [2, 7] | pH [2, 7] | Water Activity [3, 7] | pH [3, 7] | Day of Visible Mold (mold [4]; 0.5 wt. %) [days] | Day of Visible Mold (mold [4]; 0.8 wt. %) [days] | Dough pH ([5]; 0.5 wt. % mold inhibitor) | Dough pH ([5]; 0.8 wt. % mold inhibitor) | mold after day 30 up to day 45 (mold [1]; 1 wt. % on flour, bags no longer opened each day) | day visible mold developed (replicate loaves) (mold [1]; 1 wt. % on flour, stored 70-73 F, opened daily, 30-day study) [days] | days on which visible mold developed (replicates) (mold [6]; 1 wt. % on flour, 68-73 F, opened daily) [days] | mold after day 30 up to day 45 (mold [6]; 1 wt. %, remaining replicate, bags no longer opened) [days] | Water Activity [2, 8] | pH [2, 8] | Water Activity [3, 8] | pH [3, 8]
CCC(=O)[O-].CCC(=O)[O-].[Ca+2] [CCP, calcium propionate, reference compound] | performed similar to the natural calcium propionate (BV CP) | 0.9564 | 5.40 | 0.9502 | 6.7 | 7 | 9 | 5.34 | 5.53 | – | – | – | – | – | – | – | –
CCC(=O)[O-].CCC(=O)[O-].[Ca+2] [BV CP, calcium propionate] | – | 0.9535 | 5.65 | 0.9548 | 6.98 | – | – | – | – | no signs of mold growth or off odor at day 45 | > 30 | 30 | > 45 | 0.9448 | 5.73 | 0.9612 | 6.87
